Laboratory results as given in patent publication US8962639B2, “Potassium channel modulators” (AbbVie Inc., priority 2009, dated 2015).
pEC50: −log10 of the molar value.

Molecular target: T1, human KCNQ2 and KCNQ3 (Homo sapiens, UniProt O43525+O43526)
T1 construct: expressed in transfected cells; host or cells: HEK293
Experiment: KCNQ 2/3 channel activation, thallium flux FLIPR assay (BTC-AM dye) in HEK293 cells
Format: cell-based
Conditions: for Emax: HEK293, maximum response relative to response of retigabine at 10 μM set at 100%, read-out: Max response; for pEC50: HEK293 cells stably expressing human KCNQ2 and KCNQ3, compound incubated 4 minutes, Tl+ flux fluorescence
Protocol: The following example describes the assay that can be used to identify compounds that activate KCNQ 2/3 channels.
HEK293 cells stably expressing human KCNQ2 and KCNQ3 were seeded in 96-well, black-walled, clear-bottomed, poly-D-lysine coated plates (BD Biosciences, Bedford, Mass.) at a density of 1×10^5 cells per well 24 hours before the assay. On the assay day, BTC-AM dye (Invitrogen, Carlsbad, Calif.) was loaded into the cells by replacing the cell culture medium with 100 μL/well of 4 μM dye in DPBS. Dye loading was allowed to proceed for 2 hours at room temperature and then cells were washed twice in 100 μL/well of assay buffer (in mM: 10 HEPES pH 7.3, 5 glucose, 140 Na-gluconate, 2.5 K-gluconate, 3.6 Ca-gluconate, 2 MgSO4, 0.1 Ouabain) to remove unloaded dye. Cells were incubated in 50 μL of assay buffer before loading onto a FLIPR system (Molecular Devices, Sunnyvale, Calif.). Various concentrations of compounds to be assayed were added to the cells in 50 μL of assay buffer and incubated for 4 minutes. The fluorescence signal was initiated by adding 100 μL of assay buffer containing 6 mM TlNO3 and 10 mM K2SO4. Fluors were excited using the 488-nm line of an argon laser and emission was filtered using a 540±30 nm bandpass filter. Fluorescent signals were recorded for 3 minutes. Responses over baseline values were plotted versus concentrations of test compounds to obtain an EC50 value. The maximum response for each test compound was determined relative to the response produced at 10 μM by retigabine. The maximum response of retigabine at 10 μM was set at 100%.

T1 sequence (O43526 whole entry): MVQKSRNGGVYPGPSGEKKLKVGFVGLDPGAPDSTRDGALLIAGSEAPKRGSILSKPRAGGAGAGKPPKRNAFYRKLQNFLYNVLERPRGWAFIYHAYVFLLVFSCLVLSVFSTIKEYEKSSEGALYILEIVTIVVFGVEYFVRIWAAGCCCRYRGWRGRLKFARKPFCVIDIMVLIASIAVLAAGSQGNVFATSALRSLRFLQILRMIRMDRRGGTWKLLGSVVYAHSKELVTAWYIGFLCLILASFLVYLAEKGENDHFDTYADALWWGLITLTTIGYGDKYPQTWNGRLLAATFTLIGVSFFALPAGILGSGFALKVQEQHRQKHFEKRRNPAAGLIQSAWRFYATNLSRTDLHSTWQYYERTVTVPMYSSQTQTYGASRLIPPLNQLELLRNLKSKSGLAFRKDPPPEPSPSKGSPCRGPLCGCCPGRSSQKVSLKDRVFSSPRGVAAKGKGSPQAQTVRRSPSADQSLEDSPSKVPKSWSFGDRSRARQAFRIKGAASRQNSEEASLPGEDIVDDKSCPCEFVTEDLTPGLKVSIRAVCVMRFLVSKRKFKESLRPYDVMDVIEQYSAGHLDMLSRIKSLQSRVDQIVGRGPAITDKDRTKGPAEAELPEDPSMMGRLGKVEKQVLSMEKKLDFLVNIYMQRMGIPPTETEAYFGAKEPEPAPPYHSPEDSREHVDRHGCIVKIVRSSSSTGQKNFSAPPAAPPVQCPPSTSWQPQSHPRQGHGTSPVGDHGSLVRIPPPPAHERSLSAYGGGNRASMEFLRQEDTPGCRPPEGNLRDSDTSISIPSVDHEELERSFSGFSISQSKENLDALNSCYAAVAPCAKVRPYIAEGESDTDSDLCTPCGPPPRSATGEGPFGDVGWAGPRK
T1 sequence (O43525 whole entry): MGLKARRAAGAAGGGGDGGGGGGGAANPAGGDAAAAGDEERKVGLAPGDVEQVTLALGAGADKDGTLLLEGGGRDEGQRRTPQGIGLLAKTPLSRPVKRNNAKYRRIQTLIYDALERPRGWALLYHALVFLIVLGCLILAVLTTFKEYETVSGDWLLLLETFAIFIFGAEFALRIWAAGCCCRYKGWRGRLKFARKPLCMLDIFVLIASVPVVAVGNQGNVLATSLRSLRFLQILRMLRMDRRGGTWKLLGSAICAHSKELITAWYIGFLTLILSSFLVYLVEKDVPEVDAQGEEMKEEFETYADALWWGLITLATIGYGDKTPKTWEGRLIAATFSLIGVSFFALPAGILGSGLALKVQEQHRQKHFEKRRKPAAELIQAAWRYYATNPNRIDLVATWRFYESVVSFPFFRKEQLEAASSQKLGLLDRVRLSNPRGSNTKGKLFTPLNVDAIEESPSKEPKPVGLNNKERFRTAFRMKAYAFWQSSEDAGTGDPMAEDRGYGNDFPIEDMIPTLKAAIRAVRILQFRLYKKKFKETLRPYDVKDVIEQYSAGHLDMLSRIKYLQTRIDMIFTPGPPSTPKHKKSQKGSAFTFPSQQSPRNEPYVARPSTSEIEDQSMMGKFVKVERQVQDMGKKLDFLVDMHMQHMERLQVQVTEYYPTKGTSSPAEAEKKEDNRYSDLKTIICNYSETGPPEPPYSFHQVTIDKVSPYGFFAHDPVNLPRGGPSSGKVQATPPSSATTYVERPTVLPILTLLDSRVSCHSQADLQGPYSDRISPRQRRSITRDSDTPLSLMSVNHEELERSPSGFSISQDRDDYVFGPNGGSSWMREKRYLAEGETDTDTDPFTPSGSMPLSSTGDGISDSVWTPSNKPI

| Compound | Emax [%] | pEC50 |
| --- | --- | --- |
| O=C(CCC1CCCC1)Nn1c(C23CC4CC(CC2C4)C3)nc2ccccc2c1=O [Example 3, 3-cyclopentyl-N-(2-hexahydro-2,5-methanopentalen-3a(1H)-yl-4-oxoquinazolin-3(4H)-yl)propanamide] | 171 | 6.56 |
| CCc1nc2ccccc2c(=O)n1NC(=O)CC12CC3CC(CC(C3)C1)C2 [Example 9, 2-(1-adamantyl)-N-(2-ethyl-4-oxoquinazolin-3(4H)-yl)acetamide] | 124 | 6.94 |
| Cc1nc2cc(Cl)ccc2c(=O)n1NC(=O)CC12CC3CC(CC(C3)C1)C2 [Example 35, 2-(1-adamantyl)-N-(7-chloro-2-methyl-4-oxoquinazolin-3(4H)-yl)acetamide] | 20.8 | < 4.52 |
| CCc1nc2ccccc2c(=O)n1NC(=O)CC1CC2CCC1C2 (racemic) [Example 43, (±)-2-[(endo)-bicyclo[2.2.1]hept-2-yl]-N-(2-ethyl-4-oxoquinazolin-3(4 H)-yl)acetamide] | 150 | 6.41 |
| O=C(C[C@H]1C[C@@H]2CC[C@H]1C2)Nn1c(C2CC2)nc2cc(F)ccc2c1=O (racemic) [Example 61, (±)-2-[(exo)-bicyclo[2.2.1]hept-2-yl]-N-(2-cyclopropyl-7-fluoro-4-oxoquinazolin-3(4H)-yl)acetamide] | 145 | 7.51 |
| O=C(CC12CC3CC(CC(C3)C1)C2)Nn1c(-c2ccccc2)nc2ccccc2c1=O [Example 6, 2-(1-adamantyl)-N-(4-oxo-2-phenylquinazolin-3(4H)-yl)acetamide] | 103 | 6.47 |
| CC(C)c1nc2ccccc2c(=O)n1NC(=O)CCC12CC3CC(CC(C3)C1)C2 [Example 13, 3-(1-adamantyl)-N-(2-isopropyl-4-oxoquinazolin-3(4H)-yl)propanamide] | 172 | 6.40 |
| O=C(Nn1c(-c2ccccc2)nc2ccccc2c1=O)[C@@H]1[C@H]2[C@@H]3CC[C@@H](C3)[C@@H]12 [Example 39, (exo,exo)-N-(4-oxo-2-phenylquinazolin-3(4H)-yl)tricyclo[3.2.1.0^2,4]octane-3-carboxamide] | -23.5 | < 4.52 |
| CC(C)c1nc2ccccc2c(=O)n1NC(=O)[C@@H]1C[C@@H]2C=C[C@H]1C2 (racemic) [Example 31, (±)-(endo)-N-(2-isopropyl-4-oxoquinazolin-3(4H)-yl)bicyclo[2.2.1]hept-5-ene-2-carboxamide] | 140 | 6.38 |
| CC(C)c1nc2ccccc2c(=O)n1NC(=O)[C@@H]1[C@H]2[C@@H]3CC[C@@H](C3)[C@@H]12 [Example 59, (exo,exo)-N-(2-isopropyl-4-oxoquinazolin-3(4H)-yl)tricyclo[3.2.1.0^2,4]octane-3-carboxamide] | 16.5 | < 4.50 |
| O=C(CC12CC3CC(CC(C3)C1)C2)Nn1cnc2ccccc2c1=O [Example 7, 2-(1-adamantyl)-N-(4-oxoquinazolin-3(4H)-yl)acetamide] | 133 | 6.94 |
| O=C(CC12CC3CC(CC(C3)C1)C2)Nn1c(=O)[nH]c2ccccc2c1=O [Example 28, 2-(1-adamantyl)-N-(2,4-dioxo-1,4-dihydroquinazolin-3(2H)-yl)acetamide] | 93.3 | 5.76 |
| O=C(Nn1c(-c2ccccc2)nc2ccccc2c1=O)[C@@H]1C[C@@H]2C=C[C@H]1C2 (racemic) [Example 33, (±)-(endo)-N-(4-oxo-2-phenylquinazolin-3(4H)-yl)bicyclo[2.2.1]hept-5-ene-2-carboxamide] | 65.4 | 6.08 |
| Cc1nc2ccccc2c(=O)n1NC(=O)CC12CC3CC(CC(C3)C1)C2 [Example 8, 2-(1-adamantyl)-N-(2-methyl-4-oxoquinazolin-3(4H)-yl)acetamide] | 108 | 6.16 |
| CC(C)c1nc2ccccc2c(=O)n1NC(=O)CC12CC3CC(CC(C3)C1)C2 [Example 5, 2-(1-adamantyl)-N-(2-isopropyl-4-oxoquinazolin-3(4H)-yl)acetamide] | 122 | 6.83 |
